Data taken from ChEMBL document CHEMBL1145900, “Histone deacetylase inhibitors” (J Med Chem, 2003).
pIC50: −log10 of the molar value. ≈ marks a conversion by molar mass, not a printed value. Blank lines part the entries; values can stand above or below the compound they belong to.

Tests used:
HT-29 = assay: In vitro inhibitory concentration against HT-29 tumor cell proliferation; type: functional, cell-based; conditions: Homo sapiens
Jurkat = assay: In vitro inhibitory concentration against human Jurkat cell proliferation; type: functional, cell-based
[1] = molecular target: T1, Histone deacetylase (Homo sapiens) (UniProt Q13547+O15379+Q9UBN7+Q92769+Q9UQL6+Q8WUI4+Q9BY41+Q96DB2+P56524+Q9UKV0+Q969S8); assay: Percent inhibition against isolated Histone deacetylase enzyme at 30 uM; type: protein assay
Histone deacetylase [2] = type: protein assay, Homo sapiens
Description: Inhibitory concentration against human histone deacetylase (HDAC)

HCT-116 = assay: Inhibitory concentration against HCT116 cells proliferation; type: functional, cell-based; conditions: Homo sapiens
Histone deacetylase [3] = type: protein assay, Homo sapiens; remark: listed apart in the source
Description: Inhibitory concentration against histone deacetylase

Histone deacetylase 1 [4] = molecular target: Histone deacetylase 1 (Homo sapiens, UniProt Q13547, C151S); assay: Inhibitory concentration against human Histone deacetylase 1 (C151S)
[5] = Inhibition of acetylation of histone-4 in human T-24 cancer cells
Histone deacetylase 2 = Histone deacetylase 2 (Homo sapiens, UniProt Q92769); assay: Inhibitory concentration against human Histone deacetylase 2
Histone deacetylase 1 [6] = molecular target: Histone deacetylase 1 (Homo sapiens, UniProt Q13547); assay: Inhibitory concentration against human Histone deacetylase 1
[7] = molecular target: T2, Protein deacetylase HDAC6 (Homo sapiens, UniProt Q9UBN7); assay: Inhibitory concentration against human Histone deacetylase 6
T2 sequence (Q9UBN7 whole entry): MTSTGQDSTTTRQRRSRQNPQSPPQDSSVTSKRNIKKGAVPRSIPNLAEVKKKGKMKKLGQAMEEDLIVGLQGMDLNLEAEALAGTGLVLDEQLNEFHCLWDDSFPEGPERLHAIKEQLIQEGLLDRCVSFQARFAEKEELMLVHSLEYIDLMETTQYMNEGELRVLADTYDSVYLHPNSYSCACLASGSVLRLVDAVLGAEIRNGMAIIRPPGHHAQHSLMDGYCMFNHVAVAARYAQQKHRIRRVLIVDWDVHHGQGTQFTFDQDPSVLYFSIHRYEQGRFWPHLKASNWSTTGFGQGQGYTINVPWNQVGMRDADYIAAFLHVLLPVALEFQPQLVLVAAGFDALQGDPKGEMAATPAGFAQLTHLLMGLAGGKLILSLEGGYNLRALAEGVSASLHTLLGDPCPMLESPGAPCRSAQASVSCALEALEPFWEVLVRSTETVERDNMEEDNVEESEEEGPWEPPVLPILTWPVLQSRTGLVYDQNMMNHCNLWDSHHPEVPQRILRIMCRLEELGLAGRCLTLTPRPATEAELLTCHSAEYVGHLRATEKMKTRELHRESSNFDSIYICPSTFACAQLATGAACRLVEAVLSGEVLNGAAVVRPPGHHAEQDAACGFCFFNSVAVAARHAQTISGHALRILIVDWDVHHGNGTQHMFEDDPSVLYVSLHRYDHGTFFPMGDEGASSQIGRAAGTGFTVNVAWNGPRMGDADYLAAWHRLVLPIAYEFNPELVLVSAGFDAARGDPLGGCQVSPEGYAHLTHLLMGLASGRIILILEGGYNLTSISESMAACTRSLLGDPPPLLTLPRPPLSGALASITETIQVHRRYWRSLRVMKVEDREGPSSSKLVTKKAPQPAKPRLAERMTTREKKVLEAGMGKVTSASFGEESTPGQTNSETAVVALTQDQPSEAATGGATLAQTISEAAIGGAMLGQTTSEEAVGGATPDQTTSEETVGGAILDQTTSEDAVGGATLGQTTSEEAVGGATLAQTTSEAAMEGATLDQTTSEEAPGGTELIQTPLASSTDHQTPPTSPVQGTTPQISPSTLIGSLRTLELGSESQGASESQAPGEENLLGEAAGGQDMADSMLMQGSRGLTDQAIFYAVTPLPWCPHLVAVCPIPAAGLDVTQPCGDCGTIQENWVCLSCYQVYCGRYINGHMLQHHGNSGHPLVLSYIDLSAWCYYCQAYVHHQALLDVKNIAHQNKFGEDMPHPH

Histone deacetylase 4 = Histone deacetylase 4 (Homo sapiens, UniProt P56524)
Description: Inhibitory concentration against human Histone deacetylase 4

[8] = molecular target: T1, Histone deacetylase (Homo sapiens); assay: Inhibitory concentration against human Histone deacetylase; type: protein assay; conditions: concentration not given here
Histone deacetylase HD2 = molecular target: T3, Histone deacetylase HD2 (Zea mays, UniProt Q94F81); assay: Inhibitory concentration against maize Histone deacetylase 2
T3 sequence (Q94F81 whole entry): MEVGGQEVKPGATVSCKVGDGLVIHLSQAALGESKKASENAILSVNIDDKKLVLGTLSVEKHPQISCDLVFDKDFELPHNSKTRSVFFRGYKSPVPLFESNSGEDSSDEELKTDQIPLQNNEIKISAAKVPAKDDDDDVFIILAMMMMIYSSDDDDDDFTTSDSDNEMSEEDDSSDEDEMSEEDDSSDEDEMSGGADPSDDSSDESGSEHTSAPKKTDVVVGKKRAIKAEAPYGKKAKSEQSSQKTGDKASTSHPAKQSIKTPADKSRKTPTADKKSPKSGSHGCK

[9] = molecular target: T1, Histone deacetylase (Homo sapiens); assay: Percent inhibition against isolated Histone deacetylase at 30 uM; type: protein assay
MDA-MB-435 = assay: cells; type: functional, cell-based; conditions: Homo sapiens
Description: Inhibitory concentration against MDA-435 cells proliferation

Histone deacetylase [10] = molecular target: Histone deacetylase; parameters: species or system Rattus norvegicus
Description: Inhibitory concentration against rat liver Histone deacetylase

HT-1080 = assay: cells; type: functional, cell-based; conditions: Homo sapiens
Description: Inhibitory concentration against HT1080 cells proliferation

[11] = Inhibitory concentration against mixed human Histone deacetylase 1, Histone deacetylase 2 and Histone deacetylase 3

Sequence of Histone deacetylase 4 (P56524 whole entry): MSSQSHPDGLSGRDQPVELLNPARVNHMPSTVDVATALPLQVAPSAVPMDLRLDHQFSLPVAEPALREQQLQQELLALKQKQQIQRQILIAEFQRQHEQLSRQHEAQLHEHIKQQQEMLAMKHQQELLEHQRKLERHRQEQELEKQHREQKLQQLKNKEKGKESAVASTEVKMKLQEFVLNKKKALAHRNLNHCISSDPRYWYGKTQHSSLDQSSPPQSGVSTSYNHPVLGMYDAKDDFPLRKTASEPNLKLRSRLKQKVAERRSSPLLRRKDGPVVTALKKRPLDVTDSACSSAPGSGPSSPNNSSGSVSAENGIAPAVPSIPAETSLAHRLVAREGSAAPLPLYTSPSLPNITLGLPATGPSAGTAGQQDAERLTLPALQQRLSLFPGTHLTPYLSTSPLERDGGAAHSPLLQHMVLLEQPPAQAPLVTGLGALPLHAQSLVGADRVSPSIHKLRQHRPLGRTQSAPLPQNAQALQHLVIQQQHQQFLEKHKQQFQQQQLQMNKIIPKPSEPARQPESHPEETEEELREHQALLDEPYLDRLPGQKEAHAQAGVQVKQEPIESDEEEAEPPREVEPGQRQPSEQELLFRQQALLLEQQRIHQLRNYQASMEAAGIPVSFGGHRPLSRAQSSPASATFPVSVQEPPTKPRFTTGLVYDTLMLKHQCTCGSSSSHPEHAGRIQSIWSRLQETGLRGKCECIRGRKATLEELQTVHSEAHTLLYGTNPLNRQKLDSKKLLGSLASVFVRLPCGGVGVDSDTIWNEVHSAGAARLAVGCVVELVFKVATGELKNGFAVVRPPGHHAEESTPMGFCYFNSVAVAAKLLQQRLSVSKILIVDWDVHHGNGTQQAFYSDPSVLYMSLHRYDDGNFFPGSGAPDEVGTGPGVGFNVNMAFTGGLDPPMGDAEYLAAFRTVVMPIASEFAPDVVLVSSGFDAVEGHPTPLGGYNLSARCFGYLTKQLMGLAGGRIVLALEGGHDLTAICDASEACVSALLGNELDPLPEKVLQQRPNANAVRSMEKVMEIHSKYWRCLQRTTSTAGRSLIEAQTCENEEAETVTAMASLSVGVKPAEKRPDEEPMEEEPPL
Sequence of Histone deacetylase 1 (Homo sapiens, UniProt Q13547, C151S) (Q13547 whole entry C151S): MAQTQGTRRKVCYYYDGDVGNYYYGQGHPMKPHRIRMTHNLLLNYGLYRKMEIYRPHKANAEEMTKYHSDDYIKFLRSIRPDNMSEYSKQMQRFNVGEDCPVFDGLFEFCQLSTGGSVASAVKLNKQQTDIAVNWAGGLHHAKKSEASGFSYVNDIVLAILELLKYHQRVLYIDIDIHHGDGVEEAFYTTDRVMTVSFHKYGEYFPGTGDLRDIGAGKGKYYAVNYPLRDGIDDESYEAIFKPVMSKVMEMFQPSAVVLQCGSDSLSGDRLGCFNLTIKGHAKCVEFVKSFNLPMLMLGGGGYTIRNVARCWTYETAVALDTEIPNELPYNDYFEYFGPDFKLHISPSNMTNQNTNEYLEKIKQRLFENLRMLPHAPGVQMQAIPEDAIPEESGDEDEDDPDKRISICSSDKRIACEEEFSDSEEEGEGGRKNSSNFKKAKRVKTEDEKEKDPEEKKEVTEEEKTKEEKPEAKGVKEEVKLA
Sequence of Histone deacetylase 2 (Q92769 whole entry): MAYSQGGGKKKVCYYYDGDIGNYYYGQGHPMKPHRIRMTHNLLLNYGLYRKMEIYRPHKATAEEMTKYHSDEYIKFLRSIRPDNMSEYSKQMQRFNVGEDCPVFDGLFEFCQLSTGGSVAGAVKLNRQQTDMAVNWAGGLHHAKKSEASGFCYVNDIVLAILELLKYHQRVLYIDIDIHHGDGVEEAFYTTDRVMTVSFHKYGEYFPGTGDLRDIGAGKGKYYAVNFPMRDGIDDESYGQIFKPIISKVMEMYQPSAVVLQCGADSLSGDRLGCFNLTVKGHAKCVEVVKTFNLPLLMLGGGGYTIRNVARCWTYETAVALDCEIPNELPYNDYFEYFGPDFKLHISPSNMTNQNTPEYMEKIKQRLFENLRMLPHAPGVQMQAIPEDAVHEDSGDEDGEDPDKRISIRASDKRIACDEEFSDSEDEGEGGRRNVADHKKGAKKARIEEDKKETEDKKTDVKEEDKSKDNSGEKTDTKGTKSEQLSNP
Sequence of Histone deacetylase 1 (Homo sapiens, UniProt Q13547) (Q13547 whole entry): as the sequence (Q13547 whole entry C151S) above, with S151C counted along it

Structure (SMILES): C[C@H](/C=C/C=C/C(=O)NO)NC(=O)c1ccc(N(C)C)cc1
- IC50 (Histone deacetylase [2]): 12187 nM

Structure (SMILES): O=C(/C=C/c1ccc(CNCCCc2ccccc2)cc1)NO
- pIC50 (HCT-116): 7.19
- IC50 (Histone deacetylase [3]): 64 nM

Structure (SMILES): C/C=C1\NC(=O)[C@H]2CSSCC/C=C/[C@H](CC(=O)N[C@H](C(C)C)C(=O)N2)OC(=O)[C@H](C(C)C)NC1=O [ROMIDEPSIN]
- pIC50 (Histone deacetylase 1 [4]): 6.55

Structure (SMILES): C/C=C1\NC(=O)[C@@H](CSC)NC(=O)[C@@H](C(C)C)CC(=O)C[C@@H](/C=C/CCSC)OC(=O)[C@H](C(C)C)NC1=O
- pIC50 (Histone deacetylase 1 [4]): < 4.00
- pIC50 (Histone deacetylase 2): 5.48
- pIC50 (Histone deacetylase 1 [6]): 5.20
- pIC50 [7]: < 4.00
- pIC50 (Histone deacetylase 4): 3.96

Structure (SMILES): CC(C)C[C@H]1C(=O)N2C(=O)[C@@H]1CCCCOc1ccc(cc1)C[C@H]2C(=O)NCCCCCC(=O)NO
- pIC50 (MDA-MB-435): 6.82
- IC50 (Histone deacetylase [10]): 38 nM
- pIC50 (HT-1080): 6.60

Structure (SMILES): C/C=C1\NC(=O)[C@@H](CS)NC(=O)[C@@H](C(C)C)NC(=O)C[C@@H](/C=C/CCS)OC(=O)[C@H](C(C)C)NC1=O [FR-135313]
- pIC50 (Histone deacetylase 2): 8.41
- pIC50 [7]: 6.10
- pIC50 (Histone deacetylase 4): 7.60

Structure (SMILES): O=C(CCCCCCN1c2cccc3cccc(c23)S1(=O)=O)NO
- IC50 (Histone deacetylase [2]): 10 nM

Structure (SMILES): C[C@H](CCCCC(=O)NO)NC(=O)c1ccc(N(C)C)cc1
- IC50 (Histone deacetylase [2]): 359 nM

Other lines, results leading:

- IC50 (HT-29): 0.158 µg/mL (≈ 0.268 µM)
- IC50 (Jurkat): 0.152 µg/mL (≈ 0.258 µM)
Structure (SMILES): CCC(=O)CCCCC[C@@H]1NC(=O)[C@H]2CCCCN2C(=O)[C@H](Cc2ccccc2)NC(=O)[C@H](Cc2ccccc2)NC1=O

- inhibition [1]: 0%
Structure (SMILES): Cn1cc(C(=O)Cc2ccccc2)cc1/C=C/C#N

- EC [5]: 15 µM
Structure (SMILES): Nc1ccccc1NC(=O)/C=C/c1ccc(NS(=O)(=O)c2ccc(-c3ccccc3)cc2)cc1

- inhibition [8]: 72%
Structure (SMILES): O=C(CCCCCCCOc1ccc(-c2ccccc2)cc1)C(F)(F)F

- pIC50 (Histone deacetylase HD2): < 4.40
Structure (SMILES): CN(C)c1ccc(C(=O)Nc2ccc(CC(=O)NO)cc2)cc1

- inhibition [9]: 0%
Structure (SMILES): Cn1cc(C(=O)c2ccccc2)cc1C=C1C(=O)NC(=O)NC1=O

- pIC50 [11]: 8.05
Structure (SMILES): N#Cc1ccc(-c2ccc(OCCCCCCC(=O)NO)cc2)cc1

- EC [5]: 5 µM
Structure (SMILES): Nc1ccccc1NC(=O)/C=C/c1ccc(S(=O)(=O)Nc2ccc(-c3ccccc3)cc2)cc1

- inhibition [9]: 0%
Structure (SMILES): Cn1cc(C(=O)c2ccccc2)cc1C=C1C(=O)NC(=S)NC1=O
